Measured values: publication PMC6508677, “Identification of druggable small molecule antagonists of the Plasmodium falciparum hexose transporter PfHT and assessment of ligand access to the glucose permeation pathway via FLAG-mediated protein engineering” (PLoS ONE, 2019)

Biological target: T1, hGLUT5 (Homo sapiens, UniProt P22732)
T1 construct: expressed in transfected cells; host or cells: HEK293 (HEK293-FLIP); native hGLUT1 not knocked down in this line
T1 sequence (P22732 1-501): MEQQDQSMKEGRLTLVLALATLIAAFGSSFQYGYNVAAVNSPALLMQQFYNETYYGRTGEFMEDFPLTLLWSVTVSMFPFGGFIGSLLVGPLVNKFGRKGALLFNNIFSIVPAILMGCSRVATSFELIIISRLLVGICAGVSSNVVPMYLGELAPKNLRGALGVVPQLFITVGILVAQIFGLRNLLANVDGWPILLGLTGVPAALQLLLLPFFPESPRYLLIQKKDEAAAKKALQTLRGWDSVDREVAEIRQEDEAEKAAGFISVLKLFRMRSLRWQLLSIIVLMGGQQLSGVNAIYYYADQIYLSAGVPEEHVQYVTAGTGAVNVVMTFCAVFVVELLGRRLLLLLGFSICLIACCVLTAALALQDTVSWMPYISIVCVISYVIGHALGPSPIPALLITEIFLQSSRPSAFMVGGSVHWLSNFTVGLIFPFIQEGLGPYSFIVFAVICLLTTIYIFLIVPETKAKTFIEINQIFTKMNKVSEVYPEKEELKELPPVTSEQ
Test: [3H]-D-fructose uptake by HEK293 cells overexpressing GLUT5
Format: cell-based
Source text: Generation of HEK293 cells overexpressing PfHT and human GLUTs 1–4 were described elsewhere. Briefly, HEK293 cells were transfected with pcDNA3.1 FLII12Pglu-7006 (Addgene), containing the fluorescence resonance energy transfer (FRET) glucose sensor (HEK293-FLIP) and PfHT, human GLUT1 (hGLUT1), hGLUT2, hGLUT3, hGLUT4, hGLUT5 or hGLUT8 using Optifect (Life Technologies) according to manufacturer’s specifications. To increase retention of GLUT8 at the plasma membrane, the dileucine sorting signal E^7E^8XXXLL was modified to R^7R^8XXXLL as described in [17]. Stable transfectants were selected for G418 and hygromycin resistance to select for FRET sensor and hexose transporter, respectively. HEK293-FLIP cells were also used to generate cells stably transfected with FLAG-tagged PfHT (FTPfHT). FLAG tag ([…]) followed by a triple glycine linker and a tobacco etch virus (TEV) protease site (ENLYFQS) followed by a triple glycine linker was added to the N-terminus of PfHT via PCR [18] using Phusion Hot Start II High-Fidelity DNA Polymerase (Fisher Scientific). Single clones were selected by comparing their abilities to transport glucose as assayed via FRET and radiolabeled hexose uptake. In all cell lines, except for HEK293 cells overexpressing hGLUT1 and hGLUT5, native hGLUT1 was knocked down using shRNA as described elsewhere. Transcript levels of the individual GLUTs expressed in each cell line are as described in [13, 15] and in S1 Fig.
Glucose uptake by P. falciparum was performed essentially as described. P. falciparum strain 3D7 was cultured in 100 mm tissue culture dishes (Techno Plastic Products) in a 2% suspension of human erythrocytes and RPMI 1640 medium until reaching > 7.5% parasitemia. Cells were pelleted via centrifugation and resuspended in RPMI 1640 medium. To determine the uptake of radiolabeled glucose into the parasite, parasites were isolated from infected erythrocytes by permeablization with saponin (0.05 w/v), followed by centrifugation, aspiration of supernatant and washing of the pellet 3X with saline solution (135 mM NaCl, 2 mM KCl, 25 mM HEPES, 0.2 mM glucose and 1 mM MgCl2; pH 7.1) to remove cellular debris. WU-1 or DMSO vehicle were added to 100 μl parasites (resuspended in saline) 5 min prior to the addition of 100 μl [^14C]2-DOG (0.2- μCi/ml final concentration). 2-DG uptake was stopped after 2 min by layering the entire reaction over 300 μl of an oil mixture (5:4 mix of dibutyl phthalate / dinonyl phthalate) in Eppendorf tubes and centrifuged at 15,850 × g for 2 mins. The ratio of the estimated intracellular concentration of radiolabel relative to the extracellular concentration were calculated as described. Uptake of radiolabeled hexose into HEK293 cells was measured in glucose-free HBSS as described previously. Briefly, cells were plated at 400,000 cells/well overnight at 37°C in 24-well plates pre-treated with PEI. After 30-min incubation at 37°C in glucose-free HBSS in the presence of vehicle or increasing concentrations of compound, 2-DG uptake was measured in glucose-free HBSS for 4 min at 37°C. Cultures were washed in ice-cold 1X PBS and lysed in 0.1% Triton X-100 in 1X PBS. Radiolabeled hexose uptake was determined by liquid scintillation counting (Ultima Gold, Thermo Fisher) and normalized to total protein per well. Uptake data are plotted as percent uptake relative to vehicle-treated cells. Kinetic analyses were performed using the indicated concentrations of substrate and WU-1, with quenching of uptake after 1 min incubation. Incubation times had been previously determined as being in the linear range of time-dependent radiolabeled hexose uptake (2 min for 2-DG uptake into freed parasites; 2 and 4 min for D-Frc and 2-DG uptake HEK cell lines, respectively). Data were fit by least squares nonlinear regression analysis using GraphPad Prism 6.0 software.

In the case of `Cc1ccc(S(=O)(=O)CCNC(=O)c2c(-c3c(Cl)cccc3Cl)noc2C)cc1` [WU-1, 3-(2,6-dichlorophenyl)-5-methyl-N-[2-(4-methylbenzenesulfonyl)ethyl]-1,2-oxazole-4-carboxamide], the “IC50 (µM)” value (GLUT5, D-frc Uptake) is reported as “ambiguous”, the “IC50, D-fructose (Frc) uptake” value (GLUT5 cell line) is reported as “n.i” and the remaining activity at 0.001 µM (HEK293, 2 min, GLUT5, concentration 0.001 µM, read-out: D-frc Uptake AVE) is reported as 100%. The remaining activity at 0.3125 µM (HEK293, 2 min, GLUT5, concentration 0.3125 µM, read-out: D-frc Uptake AVE) was 78.1%, the remaining activity at 0.625 µM (HEK293, 2 min, GLUT5, concentration 0.6250 µM, read-out: D-frc Uptake AVE) was 82.9% and the remaining activity at 1.25 µM (HEK293, 2 min, GLUT5, concentration 1.2500 µM, read-out: D-frc Uptake AVE) was 96.7%. It also gave a remaining activity at 2.5 µM (HEK293, 2 min, GLUT5, concentration 2.5000 µM, read-out: D-frc Uptake AVE) of 102%, a remaining activity at 5 µM (HEK293, 2 min, GLUT5, concentration 5 µM, read-out: D-frc Uptake AVE) of 89.8% and a remaining activity at 10 µM (HEK293, 2 min, GLUT5, concentration 10 µM, read-out: D-frc Uptake AVE) of 87.6%. The remaining activity at 20 µM (HEK293, 2 min, GLUT5, concentration 20 µM, read-out: D-frc Uptake AVE) was 103%, the remaining activity at 40 µM (HEK293, 2 min, GLUT5, concentration 40 µM, read-out: D-frc Uptake AVE) was 108% and the remaining activity at 80 µM (HEK293, 2 min, GLUT5, concentration 80 µM, read-out: D-frc Uptake AVE) was 110%. The remaining activity at 160 µM (HEK293, 2 min, GLUT5, concentration 160 µM, read-out: D-frc Uptake AVE) was 111%, the remaining activity at 225 µM (HEK293, 2 min, GLUT5, concentration 225 µM, read-out: D-frc Uptake AVE) was 125% and the “Selectivity Index (PfHT over GLUT5), Frc” value (calculated from IC50s) was “n.i”.
